What was measured:
[1] = system: MCF-7 breast cancer model; parameters: method as in PMID 31238526; conditions: cited from earlier work
[2] = CHO-K1 cytotoxicity assay (MTT); assay type: cell-based; conditions: Chinese hamster, concentrations ranging from 1 to 10 µM, read-out: viability of cells
Description: The Chinese hamster ovary CHO-K1 cell line was obtained from the American Type Culture Collection (ATCC CCL-61). The CHO-K1 cell line was cultured in a humidified incubator at 37 °C with 5% CO2, in F-12K Medium (Kaighn’s Modification of Ham’s F-12 Medium) (ATCC) supplemented with 10% fetal bovine serum (FBS; Gibco, Waltham, MA, USA) and antibiotics (1% streptomycin/penicillin salts mixture, Sigma–Aldrich, Darmstadt, Germany).
The cells were seeded at a density of 6 × 10^3 on 96-well plates. […] Test compounds and 4MBC were dissolved in DMSO (solvent, final concentration 0.1%) and ethanol (co-solvent, final concentration 1%). At the end of the incubation period, 10 µL of MTT reagent was added to each well. After 4 h incubation (37 °C, 5% CO2), the medium was discarded, and the formazan produced in the cells appeared as dark crystals in the bottom of the wells. Next, pure DMSO was added to each well. The optical density data of converted dye was measured at 570 nm (A570) on microplate reader. […] The experiment was conducted two times with three repetitions for each condition.

[3] = system: Episkin^TM reconstructed human epidermis; assay: Episkin skin permeation test (finite dose, OECD 428); assay type: in vitro ADME; conditions: for absorbed amount detected in the RF (of the applied dose) / amount remaining on the surface of the Episkin: 24 h exposure, 10 mg/cm^2 finite dose
Description: (§1) The MM was provided by the manufacturer.
(§2) The receptor fluid composition was based on the pilot experiments.
(§3) The formulations of the test compounds (JH3 and JH10) and commercial UV filters were applied onto the skin surface in the donor compartment in a net dose of 10 mg/cm^2 (finite dose application) using disposable flexible loops. To quantify the dose of the formulation applied on the top of the Episkin^TM model, the loops were weighed, filled with approximately 11 mg of formulation, and then reweighed. The difference in weight was used as the amount of formulation applied. Commercial UV filters such as BP3, 4MBC, and AVO were used as reference standards. The filters were obtained from Sigma-Aldrich, Darmstadt, Germany.
(§4) The plate with tissues was embedded with parafilm and incubated at specific time points at 32 °C. As the passive diffusion of chemicals (and therefore their skin absorption) is affected by temperature, the diffusion chamber and skin were maintained at a constant temperature close to normal skin temperature of 32 ± 1 °C [19, 23, 30, 32]. At fixed time points (0, 1, 2, 3, 4, 5, 6, and 24 h), aliquots of the receptor fluid (0.5 mL) were collected from the receptor compartment and immediately replaced with fresh fluid. After 24 h the entire receptor fluid was collected, and the skin surface was washed thoroughly with cotton buds impregnated in methanol (5 times). The tissues were removed from the inserts and both the donor and receptor compartments were washed separately with methanol. The samples were stored at −20 °C until chemical analysis.
(§5) All samples were spiked with 25 µL of pentoxifylline (PTX, Sigma-Aldrich, Darmstadt, Germany) (final concentration of 20 µM) used as an internal standard prior to extraction. The samples were analyzed using ultra high-pressure liquid chromatography coupled with mass spectrometry (UHPLC/MS; Waters Corporation, Milford, MA, USA). Quantification was based on peak area and calculated from standard calibration curves of the compound adjusted by the internal standard area. The assay was in agreement with the Organization for Economic Co-operation and Development (OECD) guideline 428 [19].

[4] = as above; assay type: in vitro ADME, human; conditions: human; 24 h exposure, 10 mg/cm^2 finite dose, 2% formulation; read-out: recovery in the epidermis (of the applied dose)
Description: as §1, §2, §3, §4, §5

[5] = parameters: method as in PMID 31238526; conditions: 2% (w/w) macrogol formulations; cited from earlier work
[6] = system: Episkin^TM reconstructed human epidermis; assay: Episkin phototoxicity test (UVA 50 J/cm^2; MTT viability, Il-1α release); assay type: cell-based; conditions: 0.5 and 1 mM; for phototoxic potential / viability of irradiated epidermis: UVA 50 J/cm^2; for tissue viability without UVA exposure: non-irradiated
Description: as §1
Compounds JH3 and JH10 (final concentrations of 0.5 and 1 mM) solubilized in ethanol (final concentration of 1% in water) were applied topically on the tissue surface. Chlorpromazine (CPZ, chlorpromazine hydrochloride, C17H19ClN2S·HCl, CAS number: 69-09-0, molecular weight: […], purity: meets USP testing specifications, Sigma-Aldrich, Darmstadt, Germany) (final concentration of 0.5 mM, based on literature data) was used as a positive control, whereas solvent alone served as a negative control.
Duplicate plates were prepared for UVA and dark (controls) exposure purposes. After the treatment period of 2 h, the excess test compound was removed from each well, and the tissues were exposed to UVA at a non-cytotoxic dose of 50 J/cm^2 ([…] at 250 W/m^2) with a solar light simulator equipped with a window glass filter and ID65 filter (Suntest CPS+, Atlas, Linsengericht, Germany). The emitted spectrum contained both UV and visible outputs with a UV cut-on of approx. 320 nm and corresponded to ID65 per ISO 10,977 [74]. The irradiance level between 320 and 400 nm was approximated by the following equation: W/m^2 (320–400 nm) = W/m^2 (300–800 nm) ÷ 11.5. In parallel, the non-irradiated treated tissues were placed in the dark under the same conditions. […] Next, cell viability was assessed using an MTT conversion test and the culture media aliquots were kept frozen (−20 °C) for Il-1α measurement (see 2.3.2. The Episkin^TM skin irritation test method section).

[7] = parameters: method as in PMID 31238526; conditions: cited from earlier work
[8] = Incubation in buffer (pH 7.4) without HLMs (spontaneous hydrolysis control); assay type: physicochemical; conditions: buffer pH = 7.4, no HLMs, 30 min, 37 °C
Description: Supernatant analysis was performed using UHPLC/MS (Waters Corporation, Milford, MA, USA). Two control samples were prepared with each incubation set. The first, a mixture of a test compound and potassium phosphate buffer, and without the addition of HLMs nor the NADPH-regenerating system, was used to exclude the possibility of hydrolysis facilitated by the buffer solution. The second, a mixture of a test compound, potassium phosphate buffer and HLMs, but without the NADPH-regenerating system solution, was designed to evaluate the production of metabolites in the presence of enzymes but the absence of NADPH [14, 82]. The assays were repeated two times. The in vitro half time (t1/2) for JH3 was established from the slope of the linear regression of ln percent parent compound remaining against incubation time. Intrinsic clearance (Clint) was obtained from the equation: Clint = (volume of incubation [µL] (i.e., 250 µL)/protein in the incubation [mg] (i.e., 0.2 mg)) × 0.693/t1/2 [83, 84, 85].

Row | SMILES | estrogenic activity [1] | viability at 24 h [2] [%] | absorbed amount detected in the RF (of the applied dose) ([3]; 2% formulation) [%] | amount remaining on the surface of the Episkin ([3]; 2% formulation) [%] | amount in the receptor fluid (RF) ([3]; after the first hour of exposure, 2% formulation, 10 mg/cm^2) [µg/cm^2] | recovery at 24 h, 2 % in formulation [4] [%] | SPFin vitro (sun protection factor) [5] | UVA PF [5] | UVA/UVB Ratio [5] | λc [5] [nm] | phototoxic potential [6] | viability of irradiated epidermis [6] | tissue viability without UVA exposure [6] | photostability [7] | spontaneous hydrolysis in buffer [8] | detectable amount in RF, fold lower than that of JH10 ([3]; after 24 h exposure) | detection in the receptor fluid over time ([3]; sampling 0-6 and 24 h, 2% formulation, 10 mg/cm^2)
1 | CCOC(=O)CN1C(=O)/C(=C/c2ccc(OC)cc2)N(CC(=O)OCC)C1=O [JH10, diethyl 2,2′-((Z)-4-(4-methoxybenzylidene)-2,5-dioxoimidazolidine-1,3-diyl)diacetate] | no estrogenic activity | > 75 | 48 | 45 | 1 | 7 | 3.07 ± 0.04 | 2.59 ± 0.23 | 0.84 ± 0.08 | 366 | absence of phototoxic potential | no significant difference | no changes in tissue viability | photostable | no signs of spontaneous hydrolysis | – | –
2 | CCOC(=O)CN1C(=O)/C(=C/C=C/c2ccc(OC)cc2)N(CC(=O)OCC)C1=O [JH3, diethyl 2,2′-((Z)-4-((E)-3-(4-methoxyphenyl)allylidene)-2,5-dioxoimidazolidine-1,3-diyl)diacetate] | no estrogenic activity | > 75 | 1 | 95 | – | 3 | 1.68 ± 0.04 | 6.83 ± 0.05 | 4.50 ± 0.32 | 391 | absence of phototoxic potential | no significant difference | no changes in tissue viability | photostable | no signs of spontaneous hydrolysis | about 28 fold | undetectable in the RF in the first six hours

From paper PMC8949075, “Evaluation of Two Novel Hydantoin Derivatives Using Reconstructed Human Skin Model Episkin^TM: Perspectives for Application as Potential Sunscreen Agents” (Molecules, 2022)
